Assay results: a melting point compilation (Tetko et al.; mined from patent text by program, amines drawn as free bases though some values may be those of a salt)

SMILES	melting point [°C]
CC1CCNc2nc3ccc([N+](=O)[O-])cc3n21 (centres undefined)	172 to 178
CC(=O)SC(C)CNC(=O)c1cc(Cl)cc(C)c1NC(=O)c1cc(C(F)(F)F)nn1-c1ncccc1Cl (centres undefined)	137 to 139
CN(C)C1(c2cccc(O)c2)CCC(=O)CC1	175 to 177
NCCC(O)C(C(=O)O)N1CCC1=O (centres undefined)	152 to 154
CC(C)[C@H](NC(=O)OCc1ccccn1)C(=O)N[C@@H](Cc1ccccc1)C[C@H](O)[C@H](Cc1ccccc1)NC(=O)OCc1cccnc1	172 to 174
COc1ccc(CC(=O)c2cc(OC)cc(OC)c2)cc1	93 to 94
CCNc1nc(OC)c(C(=O)NCC2CCCN2CC)nc1Cl (centres undefined)	167 to 169
Nc1ccc(S(=O)(=O)c2cc(-c3cccc([N+](=O)[O-])c3)nc(N3CCCC3)c2)cc1	249 to 251
CCN1C(=O)N=NC1c1ccc(Cl)cc1 (centres undefined)	190 to 197
O=C(O)CCc1cnc2ccccc2c1	180 to 181
Cc1ccc(C2C(=O)NC(=O)NC2=O)cc1	271
Cc1cccc(SCn2cc(Br)cnc2=O)c1	164
CCCCCC1(C#N)CCC(c2ccc(-c3ccc(CCC)cc3)cc2)CC1 (centres undefined)	75
CCCCOc1ccc(CCCO)c(Oc2ncc(C(F)(F)F)cc2Cl)c1	72.6 to 72.7
CCc1cc2c(NCc3ccc4c(c3)OCO4)nc(Cl)nc2s1	148
O=C1OC(P(=O)(O)c2ccccc2)c2ccccc21 (centres undefined)	230 to 233
O=C(O)c1ccc(N(CCn2ccnc2)c2ccc(F)cc2)cc1-c1ccc(F)cc1	195 to 200
CCOC(=O)CNC(=O)CC(O)CBr (centres undefined)	59 to 61
CC1(C)C(=O)NC(=O)c2c1ccc1nc(Nc3c(Cl)cccc3Cl)[nH]c21	290 to 292

SMILES	melting point [°C]
Cc1c(C(=O)Nc2ccc(N3CCN(C)CC3)c(C#N)c2)cnn1-c1ccc(F)cc1	205 to 207
Nc1cc(=O)n(Cc2c(Cl)cccc2Cl)[nH]1	225
COC(=O)c1cc(OCc2ccccc2)ccc1O	108 to 112
Cc1cc(Nc2ccn(-c3ccccc3)n2)cc(C)c1O	154 to 155
CCOC(=O)CCNCC(O)COc1cccc(C#N)c1 (centres undefined)	95
CC(C)(C)OC(=O)C(F)=CC1C(C(=O)O)C1(C)C (centres undefined)	90
CCCCCCCCCCCCNC(=O)c1cc(Br)c(OCC(=O)O)c(-c2ccccc2F)c1	128 to 138
CCOC(=O)c1cnc2ccc(OCC)nc2c1O	275 to 278
CC12C=CC(=O)C=C1CCC1C2C(O)CC2(C)C1CCC2(O)C(O)C(=O)O (centres undefined)	213 to 214
CCOC(=O)[C@H](CCc1ccccc1)NC(=O)C(C)(C)NC(=O)[C@@H](S)C1CCOCC1	157 to 158
COc1cc(N2CCN(Cc3ccc(CNC(C)=O)cc3)CC2)nc(OC)n1	89 to 90
COc1cc(C)c(Nc2nnc3n2C(c2ccc(F)cc2)CSC3)cc1OC (centres undefined)	165 to 166
NCC1Cc2cccc(-c3ccsc3)c2O1 (centres undefined)	> 200
c1ccc(Pc2ccccc2)cc1	128 to 131
Cc1cccc2c1N(CC(=O)N1CC3CCC(CC3)C1)C(=O)C(NC(=O)Nc1cccc(C=NO)c1)N=C2c1ccccc1F (centres undefined)	196 to 199
N#CCNC(=O)C(Sc1nc2cc(Cl)ccc2s1)c1ccccc1 (centres undefined)	167 to 169
CC(C)(C)C(=O)Nc1cc(Cl)ccn1	86 to 87
O=C(O)C(NC(=O)C(F)(F)F)c1ccccc1 (centres undefined)	155 to 157

Next, values leading:

melting point [°C]	SMILES
168 to 170	CCOC(=O)c1c(N)nc(C)c(NC(C)=O)c1C
121 to 122	CCOP(=O)(/C=C/c1cn(-c2ccccc2)nc1OCc1ccc(OCc2nc(-c3ccc(C)c(C(=O)OC)c3)oc2C)c(OC)c1)OCC
125 to 127	CN(C)CN=c1[nH]c2cnccc2s1
191 to 193	CC(Cl)(Cl)C(NC(=O)c1cc(F)cc(F)c1)NC(=NC#N)Nc1cccnc1 (centres undefined)
69.3 to 71	Cc1cc(=O)c(OCc2ccccc2)c(C(=O)NC2CCC2)o1
128 to 132	CC(C)(C)NC(=O)NCC#N
105 to 106	Cc1ccccc1-n1ccc2nnc3c(C)cccc3c21
152 to 154	Cn1cc(-c2cc(OC3CCCC3)c(Cl)cc2F)c(=O)cc1C(F)(F)F
129 to 130	CN(C)CC(=O)Nc1nc(-c2ccco2)c(C(=O)C2CCOCC2)s1
112 to 114	CC(C)(C)c1cc(I)c2c(c1)CNC1(CCCCC1)O2
129 to 131	COc1cc(OC)c(-c2cc3ccccc3n2C)cc1C=CC(=O)c1ccc(S(=O)(=O)NO[Si](C)(C)C(C)(C)C)cc1
156 to 158	CC(CNC(=O)OC(C)(C)C)n1nnnc1S (centres undefined)
35	CC(=O)OC1(C)CCCCC1C1CCCCC1 (centres undefined)
200 to 207	Clc1ccc2nc(-c3ccccc3)c(-c3ccnnc3)n2n1
131	O=S(=O)(Nc1ccc(C(F)(F)F)nc1I)c1ccccc1
249 to 250	CCOC(=O)c1ncc2[nH]c3c(c2c1COC)C(=O)CCC3
102	CNn1c(C)nn(C(=O)NC(C)(C)CCc2ccccc2)c1=O
> 250	CC(=O)C1=NN(c2ccc(C(=O)O)cc2C)C(=O)C1
160 to 161	CCC(CC)c1ccc(Cl)c2nc3n(c12)CCCCN3c1cnc(N2CCCC2)cc1C

melting point [°C]	SMILES
152 to 153	COc1cc(CO[Si](C(C)C)(C(C)C)C(C)C)ccc1OCc1nc(-c2cccc(-c3nnn[nH]3)c2)oc1C
179	CCN1C(C(=O)OC)=C(O)c2ccc3ccccc3c2S1(=O)=O
97 to 98	CCC(=O)N(N(CCCl)S(C)(=O)=O)S(C)(=O)=O
146 to 147	CCCNCCc1c[nH]c2ccc(NC(N)=O)cc12
229 to 231	N#Cc1cnc2c(oc3ccccc32)c1Cl
241 to 242	COCC(=O)NC(CC(=O)Nc1n[nH]c(=S)s1)c1ccccc1 (centres undefined)
72 to 75	CN1CCN(c2cccc(-c3cnn4c(N)c(Cc5ccccc5)cnc34)c2)CC1
185 to 186	O=C(O)C1CCCc2c(n(Cc3ccc(Cl)cc3)c3ccc(F)cc23)C1 (centres undefined)
268 to 269	CCN1c2ncccc2C(=O)N(C)c2ccc(-c3c[nH]c(C#N)c3)nc21
227 to 228	O=C(Nc1ccc(Cl)cc1Cl)c1ccccc1SSc1ccccc1C(=O)Nc1ccc(Cl)cc1Cl
96 to 99	Cc1cc(C)c2nc(COc3ccc(CC4SC(=O)N(C(c5ccccc5)(c5ccccc5)c5ccccc5)C4=O)cc3)n(C)c2n1 (centres undefined)
> 250	NCC1Cc2cc(-c3ccccc3)cc(-c3ccccc3Cl)c2O1 (centres undefined)
236 to 240	O=C1Cn2nccc2-c2ccccc2N1
> 300	CCCNS(=O)(=O)c1cc2cc(P(=O)(O)O)c(=O)[nH]c2cc1Cl
152 to 154	C#CCN(CCC12CC3CC(CC(C3)C1)C2)C(=O)NCCCc1ccncc1
121 to 122	CC(=O)SCC(Cc1ccccc1)C(=O)Nc1ccccc1C(=O)O (centres undefined)
223 to 224	CC(=O)N1CCC(n2ccc(-c3ccc(F)cc3)c2-c2ccncc2)CC1
85 to 87	CC(=O)C(=Cc1cc(Cl)cc(Cl)c1)C(C)=O
